Laboratory results taken from patent US20240253988A1, “PROCESS FOR THE PRODUCTION OF HYDROGEN PEROXIDE” (ARKEMA FRANCE, priority 2021, published 2024).

Legend:
[1] = Water solubility, coulometric Karl Fischer titration ASTM-D6304; type: physicochemical
Experimental: According to some preferred embodiments, the organic solvent is not soluble (or essentially not soluble) in water, and preferably has a water solubility equal to or lower than 200 mg/kg, preferably equal to or lower than 190 mg/kg, and more preferably equal to or lower than […]. Water solubility can be determined by coulometric Karl Fischer titration according to ASTM-D6304.
Water solubility can be determined by coulometric Karl Fischer titration according to ASTM-D6304.

[2] = Flash point, closed-cup apparatus ASTM-D3278; type: physicochemical
Experimental: According to preferred embodiments, the organic solvent according to the present invention may have a flash point higher than 60° C., preferably higher than 62.5° C. and more preferably higher than 65° C. Flash point can be determined by closed-cup apparatus according to ASTM-D3278.
Flash point can be determined by closed-cup apparatus according to ASTM-D3278.

[3] = Vapor pressure, ebulliometry ASTM-E1719; type: physicochemical
Experimental: Furthermore, the solvent of formula (I) may have a vapor pressure equal to or lower than 450 Pa, preferably equal to or lower than 400 Pa, and more preferably equal to or lower 350 Pa at 20° C. For example, the solvent of formula (I) may have a vapor pressure equal to or lower than 450 Pa, or equal to or lower than 400 Pa, or equal to or lower than 350 Pa, or equal to or lower than 300 Pa, or equal to or lower than 250 Pa, or equal to or lower than 200 Pa, or equal to or lower than 250 Pa, or equal to or lower than 200 Pa, or equal to or lower than 150 Pa, or equal to or lower than 100 Pa, at 20° C. Vapor pressure can be determined by ebulliometry according to ASTM-E1719.
Vapor pressure can be determined by ebulliometry according to ASTM-E1719.

[4] = Specific gravity, hydrometer ASTM-D891; type: physicochemical
Source text: The organic solvent according to the present invention may have a specific gravity equal to or lower than 0.95, and preferably equal to or lower than 0.94. According to preferred embodiments, the organic solvent according to the present invention may have a specific gravity from 0.89 to 0.95, and preferably from 0.90 to 0.94. Specific gravity can be determined by means of a hydrometer according to ASTM-D891.
Specific gravity can be determined by means of a hydrometer according to ASTMD891.

[5] = type: physicochemical
Experimental: The solubility of 2-ethylanthraquinone (2-EAQ) was measured in four different solvents. Solvents A to C are according to the invention, while solvent D is a comparative solvent: • Solvent A: 1-ethyl-4-methoxybenzene • Solvent B: 2,6-dimethylanisole • Solvent C: phenylpropylether • Solvent D: 1,3,5-trimethylbenzene
Solubilities were determined by equilibrating the 2-ethylanthraquinone with the solvent in a glass flask shaken in a carefully temperature controlled atmosphere. Analysis of the samples was done by liquid chromatography. Reference mixtures were prepared for calibration.
The solubility is measured at a temperature of 20° C.

Structure (SMILES) | Water solubility [1] | Flashpoint [2] | Vapor Pressure [3] | Specific gravity [4] | 2-EAQ solubility [5]
COc1ccccc1 [Anisole (*), Anisole, reference compound] | 1728 mg/kg | 49-52 °C | 490 Pa | 0.995 | –
CCc1ccc(OC)cc1 [Solvent A, 1-ethyl-4-methoxybenzene] | 90 mg/kg | 68-72 °C | 67 Pa | 0.944 | 229 g/kg of solvent
CCCOc1ccccc1 [Solvent C, phenylpropylether] | 141 mg/kg | 64-65 °C | 60 Pa | 0.946 | 229 g/kg of solvent

Results, then the compound that gave them:

Water solubility [1] | Flashpoint [2] | Vapor Pressure [3] | Specific gravity [4] | 2-EAQ solubility [5] | Structure (SMILES)
114 mg/kg | 61-67 °C | 124 Pa | 0.943 | 226 g/kg of solvent | COc1c(C)cccc1C [Solvent B, 2,6-dimethylanisole]
– | – | – | – | 210 g/kg of solvent | Cc1cc(C)cc(C)c1 [Solvent D, 1,3,5-trimethylbenzene, reference compound]
